From patent publication US20080071116A1, “Modulators of Lysophosphatidic Acid (Lpa) Signaling and the Use Thereof” (THE BOARD OF REGENTS OF THE UNIVERSITY OF TEXAS SYSTEM, priority 2004, published 2008)

Key:
LPA3 receptor [1] = biological target: T1, LPA3 receptor (Homo sapiens, UniProt Q9UBY5); test: calcium mobilization in Sf9 insect cells expressing LPA3; type: cell-based; parameters: expressed in transfected cells; host or cells: Sf9 insect cells
T1 sequence (Q9UBY5 1-353): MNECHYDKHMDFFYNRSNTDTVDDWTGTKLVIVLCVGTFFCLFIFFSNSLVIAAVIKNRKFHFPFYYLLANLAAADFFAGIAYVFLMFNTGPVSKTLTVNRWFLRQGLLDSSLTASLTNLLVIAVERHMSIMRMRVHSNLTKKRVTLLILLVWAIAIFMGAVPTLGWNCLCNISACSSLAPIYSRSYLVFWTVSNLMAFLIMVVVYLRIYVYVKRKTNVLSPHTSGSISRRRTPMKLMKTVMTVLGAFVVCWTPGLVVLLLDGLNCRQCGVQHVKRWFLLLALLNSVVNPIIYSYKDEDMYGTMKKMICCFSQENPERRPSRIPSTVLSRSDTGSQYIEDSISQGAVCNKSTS

HT29 cells = test: calcium mobilization assay in colon cancer HT29 cells; type: cell-based; conditions: HT29 cells
Procedure: The procedures for these calcium mobilization assays are as followed: OVCAR3 cells and PC-3 cells were cultured in RPMI 1640 medium with 10% FBS (fetal bovine serum). HT29 cells were cultured in DMEM (high glucose) medium with 10% FBS. All cells were cultured at about 37° C. in a humidified atmosphere with 5% CO2. After starvation in serum-free medium for about 12-24 hours, cells were harvested and loaded with about 1 μM of Indo-1 AM in serum-free medium for about 45 min at 37° C. Cells were washed in PBS and resuspended at 2×10^6 cells/ml in a [Ca^2+]i assay buffer (Sodium chloride, NaCl, about 140 mM, potassium chloride, KCl, about 2 mM, magnesium chloride, MgCl2, about 1 mM, calcium chloride, CaCl2, about 2 mM, in about 25 mM HEPES buffer at pH 7.4 with about 10 mM of glucose). Cytoplasmic [Ca^2+]i was determined at an excitation wavelength of about 331 nm and an emission wavelength of 410 nm using a fluorescence spectrophotometer (Hitachi, F-4000). Approximately 3×10^6 cells were used for [Ca^2+]l determination in a stirred quartz cuvette kept at about 37° C. OMPT or 18:1 LPA was dissolved in about 0.1% BSA/PBS solution and applied immediately to the cells. To test other LPA derivatives of the invention, cells were exposed to the derivatives for about 3 minutes or for a period of various times in time course related experiments before a LPA agonist, such as 18:1 LPA, OMPT, or other LPAs was applied into the cuvette.
The concentration of calcium mobilization giving the half-maximal response (EC50) was obtained from the concentration-response curve fitted to a sigmoidal logistic equation, with the maximal calcium response set to 100% using the GraphPad Prism. Maximal response value is expressed as mean +/−s.e.m. EC50 value is expressed with 95% confidence.

LPA1 receptor [2] = biological target: T2, LPA1 receptor (Homo sapiens, UniProt Q92633); test: GTP[γ-35S] binding assay, HEK293 T membranes, LPA1; type: biochemical; parameters: expressed in transfected cells; host or cells: HEK293 T cells (crude microsomal membranes); conditions: HEK293 transfected with LPA1, FIG. 59A
Procedure: OMPT also enhances GTP [γ-^35S] binding in the cell membrane of HEK293 T cells expressing LPA3. The procedures for these GTP [γ-^35S] binding assays involve co-transfection of HEK293 T cells with expression vectors encoding one of the receptors for LPA (LPA1, LPA2, or LPA3) or S1P (S1P3/Edg3) by calcium phosphate precipitation, together with plasmids encoding three G proteins (rat Gi2α, cow β1, and cow γ2). After about 48 hours, cells were harvested and crude microsomal membranes were prepared. Membranes containing about 5 μg of protein were incubated in 0.1 ml of GTP-binding buffer (50 mM Hepes, 100 mM NaCl, 10 mM MgCl2, pH7.5) having 5 μg of saponin, 0.1% fatty acid-free BSA, 10 μM GDP, 0.1 nM GTP[γ-^35S] (1200 Ci/mmole) together with indicated concentrations of LPA or OMPT for about 30 min at 30° C. Membranes were collected using a 96-well Brandel Cell Harvester (Gaithersburg, Md.), and bound radionuclide was determined using a Packard TopCount liquid scintillation counter.

AKT = AKT phosphorylation immunoblot in prostate cancer cells; type: cell-based, human; conditions: PC-3 and DU145 cells
Procedure: The cells were then lysed in SDA sample buffer or ice-cold X-100 lysis buffer (1% Triton X-100, 50 mM HEPES [pH7.4], 150 mM NaCl, 1.5 mM MgCl2, 1 mM EGTA, 10% glycerol, 100 mM NaF, 10 mM Na pyrophosphate, and 1 mM aprotinin). Total cellular protein was resolved by SDS/PAGE, transferred to immobilon [poly (vinylidene difluoride)], and immunoblotted with antibodies following the protocols provided by manufactures. Immunocomplexes were visualized with an enhanced chemiluminescence detection kit (Amersham Pharmacia) using horseradish peroxidase-conjugated secondary antibodies (Bio-Rad).

[3] = system: chimera receptor, LPA1/LPA2; test: calcium mobilization in Sf9 cells expressing LPA1/LPA2 chimera receptor; type: cell-based; conditions: FIG. 58C
LPA3 receptor [4] = biological target: T1, LPA3 receptor; test: HA-Erk1 phosphorylation in HEK 293 T cells transfected with LPA3; type: cell-based; parameters: expressed in transfected cells; conditions: LPA3 transfected HEK 293 T; 0.01, 0.1, or 1 μM
Excerpt: We have also tested kinase activation by the LPA3 receptor subtype using OMPT as a tool. We determined whether activation of the LPA3 receptor by OMPT can be linked to ERK activation (related to MAP kinase signaling pathway) in mammalian cells, HEK 293 T cells, by co-transfecting hemagglutinin (HA)-tagged Erk1 (HA-Erk1) with either a control vector or an expression vector having LPA1, LPA2, or LPA3. […] There is no phosphorylation of HA-Erk1 at lower concentration of LPA or OMPT in the absence of LPA receptors. […] Thus, the data confirmed that OMPT, an LPA derivative, is a selective agonist for LPA3 receptor subtype, capable of inducing MAPK activation.

PC-3 cells = test: membrane ruffling and cell migration in PC-3 cells; type: cell-based, human
LPA1 receptor [5] = biological target: T2, LPA1 receptor; test: calcium mobilization in Sf9 insect cells expressing LPA1; type: cell-based

T2 sequence (Q92633 whole entry): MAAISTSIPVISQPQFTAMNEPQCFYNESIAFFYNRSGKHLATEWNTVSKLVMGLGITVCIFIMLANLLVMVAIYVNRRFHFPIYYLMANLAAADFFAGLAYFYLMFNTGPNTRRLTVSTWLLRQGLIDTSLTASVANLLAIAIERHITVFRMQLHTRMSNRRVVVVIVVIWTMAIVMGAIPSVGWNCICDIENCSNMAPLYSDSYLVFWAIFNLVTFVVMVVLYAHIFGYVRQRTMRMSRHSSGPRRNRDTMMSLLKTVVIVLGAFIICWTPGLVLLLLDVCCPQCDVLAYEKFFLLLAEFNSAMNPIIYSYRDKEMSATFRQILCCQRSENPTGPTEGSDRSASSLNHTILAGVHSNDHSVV

In the case of `CCCCCCCC/C=C\CCCCCCCC(=O)OCC(COP(O)(O)=S)OC` (racemic) [OMPT, 1-oleoyl-sn2-O-methyl-rac-glycero-3-phosphothionate], the calcium mobilization (LPA3 receptor [1]) is reported as “efficiently activates calcium mobilization”, the EC50 (LPA3 receptor [1]; read-out: EC50 of increase in intracellular calcium concentration) is reported as 0.069 µM and the “stimulation of calcium mobilization” value (HT29 cells; FIG. 3) is reported as “but not OMPT, stimulates calcium mobilization”. The EC50 (HT29 cells; Homo sapiens, HT-29) was less than 1 µM, the “activation in GTP[γ-35S] binding assay” value (LPA1 receptor [2]) was “does not activate” and the “activation of AKT” value (AKT) was “efficiently activates”. For the same compound, the calcium mobilization [3] was “did not induce calcium mobilization”, the HA-Erk1 phosphorylation (LPA3 receptor [4]) was “stimulates Erk1 phosphorylation at all concentrations tested” and the “stimulation of membrane ruffling and cell migration” value (PC-3 cells) was “induces neither morphology changes nor migration”. For the same compound, the EC50 (LPA1 receptor [5]) was greater than 10 µM.
